This experiment concerns the target T1, soluble catalytic domain fragment of human HMG reductase (Homo sapiens, UniProt P04035).
T1 construct: composed of insoluble transmembrane segment and soluble catalytic domain; purchased Sigma-Aldrich CS 1090
T1 sequence (P04035 340-888 limits assumed): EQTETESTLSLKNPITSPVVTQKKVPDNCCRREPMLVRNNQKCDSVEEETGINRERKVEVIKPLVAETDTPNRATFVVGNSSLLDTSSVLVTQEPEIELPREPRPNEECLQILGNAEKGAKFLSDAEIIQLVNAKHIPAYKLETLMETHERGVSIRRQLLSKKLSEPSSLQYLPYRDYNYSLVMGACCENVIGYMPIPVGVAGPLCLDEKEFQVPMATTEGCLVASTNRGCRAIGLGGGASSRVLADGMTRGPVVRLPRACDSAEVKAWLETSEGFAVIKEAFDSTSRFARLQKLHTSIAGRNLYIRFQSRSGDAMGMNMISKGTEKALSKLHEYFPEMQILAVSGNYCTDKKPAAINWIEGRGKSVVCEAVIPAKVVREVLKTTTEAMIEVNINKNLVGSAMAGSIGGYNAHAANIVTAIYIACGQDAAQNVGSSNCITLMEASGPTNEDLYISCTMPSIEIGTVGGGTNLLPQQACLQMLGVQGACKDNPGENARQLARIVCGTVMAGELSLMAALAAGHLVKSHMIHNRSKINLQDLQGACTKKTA
Kind of experiment: HMG-Co-A reductase inhibition activity, dose-response curves (Sigma-Aldrich assay kit, absorbance at 340 nm). In kind it is biochemical. The settings on record: for IC50: NADP(H) 250 μM, sub-saturating NADP(H) and coenzyme A, decrease in absorbance at 340 nm, read-out: IC50 μM error; for Hill coefficient: fit of the dose-response curve; for potency relative to pravastatin in inhibiting HMG-CO-A-reductase enzyme: fraction of the potency of pravastatin. An excerpt: SigmaAldrich. […] In: catalog number CS 1090. […].com/catalog/product/[…]®ion=HR. […] Holdgate G, Ward […]. […] Louis-Flamberg […], Bryan D L, Leber J, Elliott […] et al. […], Buchanan […]. Crystal structure of the catalytic portion of human HMG-CoA reductase: insights into regulation of activity and catalysis. […] Motulsky H, Christopoulos A. Fitting Models to Biological Data Using Linear and Nonlinear Regression: A Practical Guide to Curve Fitting Oxford University Press, USA; 1 edition 2004. […] Briefly, the dose-response curves have been measured using soluble catalytic domain fragment of human HMG reductase. […] The activity was measured by following decrease in a sample's absorbance at 340 nm caused by enzymatic oxidation of NADP(H) in presence of coenzyme A. […] NADP(H) concentration in the assay mix was adjusted to 250 μM. […] Stock solutions of Na salts of EPA-statin, ALA-statin were prepared in assay buffer in concentration of 50 mM, and subsequently diluted to lower concentrations in the same buffer as needed.

The structures appear in SMILES notation. Where a name gives a salt, the structure may show the parent alone.

The values that follow come from patent publication US9540307B2, “Statins of omega-3 polyunsaturated acids for treating hypercholesterolemia” (Jiva Pharma, Inc., priority 2014, dated 2017).

The term IC50 denotes the midpoint of a concentration-inhibition curve. The Hill coefficient is a measure of the steepness of the concentration-response curve.

Regarding `CC/C=C\C/C=C\C/C=C\CCCCCCC[C@@H](O)C[C@@H](O)CC(=O)O` [ALA-statin, Na salt, Sodium (3R,5R,13Z,16Z,19Z)-3,5-dihydroxydocosa-13,16,19-trienoate], the IC50 turned out to be 25 ± 7 µM, the Hill coefficient was 1.3 ± 0.3 and the “potency relative to pravastatin in inhibiting HMG-CO-A-reductase enzyme” value was “about 1/20”.
In the same order, the values of `CC/C=C\C/C=C\C/C=C\C/C=C\C/C=C\CCC[C@@H](O)C[C@@H](O)CC(=O)[O-].[Na+]` [EPA-statin, Na salt, Sodium (3R,5R,9Z,12Z,15Z,18Z,21Z)-3,5-dihydroxytetracosa-9,12,15,18,21-pentaenoate] are 94 ± 8 µM, 1.6 ± 0.6 and “about 1/100”.
